PubChem BioAssay AID1918996 (Molecular Pharmacology Branch, DTP, NCI, 2023)
pIC50: −log10 of the molar value. “And” between values parts separate entries of the source, which are not always exact repeats. Equal entries are not always repeated.

System: 349418-098-R-PDC complex spheroid growth
Assay: Anticancer human tumor 349418-098-R-PDC patient-derived lung adenocarcinoma cell line growth inhibition [AhR]
Settings: for viability, T/C: stronger effect = lower value; for pIC50: curve of compound
Source text: Multicellular complex tumor spheroid response to aryl hydrocarbon receptor antagonists in combination with a variety of drugs and investigational agents in selected tumor cell lines
The current study was undertaken to assess response to aryl hydrocarbon receptor antagonists in combination with standard-of-care drugs and investigational agents in solid tumor complex spheroid models. Complex spheroids include a stromal component modeled by human endothelial cells (HUVEC) and fibroblasts modeled by human mesenchymal stem cells (MSCs). The concentration ranges selected for each drug and investigational agent were based upon clinically achievable concentrations if the clinical Cmax of the agent was known.
Compounds. The drugs and investigational agents: BAY 2416964 (NSC825713), GNF351 (NSC835774), CH-223191 (NSC835775), CPI-455 (NSC825282), aza-TdCyd (NSC777586), decitabine (NSC127716), belinostat (NSC758774), entinostat (NSC756642), pevonedistat (NSC761192), tazemetostat (NSC777109), talazoparib (NSC765396), olaparib (NSC753686), selinexor (NSC780203), nedisertib (M3814, NSC802822), bortezomib (NSC756655), venetoclax (NSC766270), doxorubicin (NSC123127), elimusertib (BAY189344, NSC800525), ceralasertib (AZD6738, NSC777638), TAK-243 (NSC785004), alisertib (NSC759677), etoposide (NSC141540), topotecan (NSC609699), eribulin (NSC707389), gemcitabine (NSC613327), carboplatin (NSC241240), cisplatin (NSC119875), and SN-38 (NSC673596) were obtained from the National Cancer Institute (NCI) Developmental Therapeutics Program Chemical Repository (32). The FDA-approved anticancer drug set is available from the Developmental Therapeutics Program at https://dtp.cancer.gov/organization/dscb/obtaining/available plates.htm. […] The stock solutions were prepared in dimethyl sulfoxide (DMSO, Sigma-Aldrich, St. Louis, MO, cat. D2650), except for the platinum compounds which were prepared in saline (Quality Biological, Gaithersburg, MD, cat. 114-055-101), at 800-fold the tested concentration and stored at -70 degrees C prior to their use. All drugs and investigational agents were tested over a range starting from a high concentration at or near the clinical Cmax and decreasing in half-log increments. If the clinical Cmax for an agent had not been determined, the highest concentration tested was 10 microM (Table 1).
Cell Culture. All cells were maintained in an incubator at 37 degrees C and 5% CO2 with 95% humidity. The PDC lines were cultured according to standard operating procedures established by the NCI PDMR (https://pdmr.cancer.gov). Briefly, all PDCs were thawed and cultured in Matrigel-coated flasks prepared with a working solution of 1X Ham's F-12 nutrient mix, without supplementation (Invitrogen, Waltham, MA, cat. 11765054), 100 U/mL penicillin-streptomycin (Invitrogen, cat. 15140122), and 2.5% Matrigel (Corning Inc., Corning, NY, cat. 354248) for the first three passages. All PDCs were cultured in complete DMEM/F-12 media containing advanced DMEM/F-12 (Invitrogen, cat. 12634028), 4.9% defined fetal bovine serum, heat inactivated (HyClone Laboratories Inc., Logan, UT, cat. SH30070.03HI), 389 ng/mL hydrocortisone (Sigma-Aldrich, cat. H4001), 9.7 ng/mL human EGF recombinant protein (Invitrogen, cat. PHG0313), 23.4 microg/mL adenine (Sigma-Aldrich, cat. A2786), 97.3 U/mL penicillin-streptomycin (Invitrogen, cat. 15140122), 1.9 mM L-glutamine (Invitrogen, cat. 25030081), and 9.7 microM Y-27632 dihydrochloride (Tocris Bioscience, Bristol, United Kingdom, cat. 1254). The PDCs were cultured in complete DMEM/F12 media without 10 microM Y-27632 dihydrochloride for at least two passages prior to the screen. The established cell lines NCI-H1341 and […] were cultured in DMEM/F-12, HEPES (Invitrogen, cat. 11330032), 5% defined fetal bovine serum (HyClone Laboratories Inc., cat. SH30070.03), ITS premix universal culture supplement [insulin (5 microg/mL), transferrin (5 microg/mL), and selenious acid (5 ng/mL)] […]
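Note: spheroids exposed to agents for seven days before luminescence viability read.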
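Throughout, for viability, T/C: spheroids also contain HUVEC endothelial cells and human MSC stroma.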

| Compound | pIC50 | viability, T/C (compound 0.0316 µM) | viability, T/C (compound 0.1 µM) | viability, T/C (compound 0.316 µM) | viability, T/C (compound 1 µM) | viability, T/C (compound 3.16 µM) | viability, T/C (compound 10 µM) | also measured |
| --- | --- | --- | --- | --- | --- | --- | --- | --- |
| COc1cccc2c1C(=O)c1c(O)c3c(c(O)c1C2=O)CC(O)(C(=O)CO)CC3OC1CC(N)C(O)C(C)O1 (stereo not drawn) | > 7.50 | 12.1% and 24.6% and 20.9% | 7.69% and 19% and 13.3% | 1.29% and 5.3% and 4.49% | 0.27% and 0.62% and 0.79% | 2.73% and 2.97% and 3.14% | 4.37% and 6.2% and 5.59% |  |
| Cc1cncc(-c2nc(NCCc3c[nH]c4ccccc34)c3ncn(C(C)C)c3n2)c1 |  |  | 97.7% [middle of 20 runs] | 93.4% [middle of 20 runs] |  |  | 2.04% [middle of 19 runs] |  |
| Cn1ncnc1C1c2n[nH]c(=O)c3cc(F)cc(c23)NC1c1ccc(F)cc1 (stereo not drawn) | < 7.00 | 87.6% and 97.2% and 84.1% | 90.1% and 98.5% and 63.7% |  |  |  |  | viability, T/C (compound 0.000316 µM): 100% and 74.1% and 70.2%; viability, T/C (compound 0.001 µM): 102% and 101% and 105%; viability, T/C (compound 0.00316 µM): 99.4% and 111% and 92.2%; viability, T/C (compound 0.01 µM): 93.1% and 74.3% and 87% |
| NS(=O)(=O)OCC1CC(n2ccc3c(NC4CCc5ccccc54)ncnc32)CC1O (stereo not drawn) | 6.24 and 6.64 and 6.70 | 94% and 96.6% and 72.3% | 96.1% and 79.4% and 73.2% | 72.6% and 35.4% and 34.8% | 27.8% and 25.5% and 21.3% | 15.2% and 12.5% and 14% | 6.38% and 8.08% and 8.54% |  |
| Nc1ccccc1NC(=O)c1ccc(CNC(=O)OCc2cccnc2)cc1 | 6.07 and 5.84 and 6.03 | 86.3% and 118% and 87.5% | 77.6% and 98.4% and 82.2% | 65.7% and 89.3% and 84.6% | 48.9% and 69.2% and 44.6% | 23.7% and 17.8% and 23.1% | 5.19% and 7.03% and 7.04% |  |
| Nc1ccn(C2OC(CO)C(O)C2(F)F)c(=O)n1 (stereo not drawn) | > 7.50 | 4.83% and 12.5% and 13.7% | 4.18% and 11.3% and 11.8% | 4.06% and 10.1% and 12.9% | 5.57% and 9.29% and 10.5% | 4.07% and 9.38% and 10.2% | 3.24% and 7.8% and 8.55% |  |
| O=C(C=Cn1cnc(-c2cc(C(F)(F)F)cc(C(F)(F)F)c2)n1)NNc1cnccn1 | 7.30 and 7.68 and 7.62 |  |  |  |  |  |  | viability, T/C (compound 0.00949 µM): 101% and 61.6% and 69.8%; viability, T/C (compound 0.03 µM): 59.3% and 45% and 45.2%; viability, T/C (compound 0.0949 µM): 40.3% and 14.9% and 16.5%; viability, T/C (compound 0.3 µM): 12.2% and 12.3% and 7.91%; viability, T/C (compound 0.949 µM): 6.89% and 8.37% and 7.72%; viability, T/C (compound 3 µM): 4.34% and 6.5% and 7.38% |

Second part, led by results:

| pIC50 | Compound | viability, T/C (compound 0.0316 µM) | viability, T/C (compound 0.1 µM) | viability, T/C (compound 0.316 µM) | viability, T/C (compound 1 µM) | viability, T/C (compound 3.16 µM) | viability, T/C (compound 10 µM) | also measured |
| --- | --- | --- | --- | --- | --- | --- | --- | --- |
| 6.69 and 7.27 and 7.49 | Nc1ncn(C2CC(O)C(CO)O2)c(=O)n1 (stereo not drawn) | 80% and 57.7% and 46.6% | 67% and 49.8% and 46.6% | 38.9% and 42.3% and 32.5% | 32.3% and 31.3% and 26.1% |  |  | viability, T/C (compound 0.00316 µM): 105% and 99.7% and 103%; viability, T/C (compound 0.01 µM): 103% (2×) and 68.3% |
| 7.03 and 6.92 and 6.95 | Nc1ncn(C2CC(O)C(CO)S2)c(=O)n1 (stereo not drawn) |  |  |  |  |  |  | viability, T/C (compound 0.000949 µM): 97.2% and 92.9% and 82.7%; viability, T/C (compound 0.003 µM): 99.2% and 94.3% and 81.9%; viability, T/C (compound 0.00949 µM): 96.8% and 87.4% and 85.6%; viability, T/C (compound 0.03 µM): 73.7% and 78.3% and 64.3%; viability, T/C (compound 0.0949 µM): 51.7% and 54.9% and 55.8%; viability, T/C (compound 0.3 µM): 29% and 31.2% and 26.1% |
| 6.14 and 6.18 | O=C(C=Cc1cccc(S(=O)(=O)Nc2ccccc2)c1)NO | 81.9% and 112% and 124% | 83.5% and 128% and 78% | 60.7% and 73.3% and 78.8% | 48.6% and 42.6% and 41.5% | 13.1% and 11.2% and 10.6% | 2.17% and 1.85% and 2.27% |  |
| < 5.00 and 5.44 and 5.25 | O=C(c1cc(Cc2n[nH]c(=O)c3ccccc23)ccc1F)N1CCN(C(=O)C2CC2)CC1 | 99.3% and 78.6% and 91.4% | 96.3% and 102% and 76.1% | 102% and 59% and 78.5% | 92.2% and 95.7% and 68.9% | 92.4% and 52.9% and 67.8% | 64.2% and 30% and 36.2% |  |
